Legend:
[1] = system: full length SMN2 minigene mRNA containing SMN2 exon 7; experiment: SMN2 minigene mRNA splicing RT-qPCR assay in cultured cells; assay type: cell-based, human; details: Homo sapiens, HEK293-H; HEK293H cells stably transfected with SMN2-A minigene, 24 hours, 7-point concentration curve; concentration giving 1.5-fold full length SMN2 mRNA vs vehicle; read-out: EC1.5x for production of full length SMN2 mRNA
Experimental: The reverse transcription-quantitative PCR-based (RT-qPCR) assay is used to quantify the level of the full length SMN2 minigene mRNA containing SMN2 exon 7 in a HEK293H cell line stably transfected with said minigene and treated with a test compound.
HEK293H cells stably transfected with the SMN2-A minigene construct described above (10,000 cells/well) are seeded in 200 ut, of cell culture medium (DMEM plus 10% FBS, with 200 μg/mL hygromycin) in 96-well flat-bottom plates and the plate is immediately swirled to ensure proper dispersal of cells, forming an even monolayer of cells. Cells are allowed to attach for at least 4-6 hours. Test compounds are serially diluted 3.16-fold in 100% DMSO to generate a 7-point concentration curve. A solution of test compound (1 μL, 200× in DMSO) is added to each cell-containing well and the plate is incubated for 24 hours in a cell culture incubator (37° C., 5% CO2, 100% relative humidity). 2 replicates are prepared for each test compound concentration. The cells are then lysed in Cells-To-Ct lysis buffer and the lysate is stored at −80° C.
Primer SMN Forward A (SEQ ID NO. 1) hybridizes to a nucleotide sequence in exon 7 (nucleotide 22 to nucleotide 40), primer SMN Reverse A (SEQ ID NO. 2) hybridizes to a nucleotide sequence in the coding sequence of Firefly luciferase, SMN Probe A (SEQ ID NO. 3) hybridizes to a nucleotide sequence in exon 7 (nucleotide 50 to nucleotide 54) and exon 8 (nucleotide 1 to nucleotide 21). The combination of these three oligonucleotides detects only SMN1 or SMN2 minigenes (RT-qPCR) and will not detect endogenous SMN1 or SMN2 genes.
The SMN forward and reverse primers are used at final concentrations of 0.4 μM. The SMN probe is used at a final concentration of 0.15 μM. The GAPDH primers are used at final concentrations of 0.2 μM and the probe at 0.15 μM.
The SMN2-minigene GAPDH mix (15 μL total volume) is prepared by combining 7.5 μL of 2×RT-PCR buffer, 0.4 μL of 25×RT-PCR enzyme mix, 0.75 μL of 20×GAPDH primer-probe mix, 4.0075 μL of water, 2 μL of 10-fold diluted cell lysate, 0.06 μL of 100 μM SMN forward primer, 0.06 μL of 100 μM SMN reverse primer, and 0.225 μL of 100 μM SMN probe.
PCR is carried out at the following temperatures for the indicated time: Step 1: 48° C. (15 min); Step 2: 95° C. (10 min); Step 3: 95° C. (15 sec); Step 4: 60° C. (1 min); then repeat Steps 3 and 4 for a total of 40 cycles.
Each reaction mixture contains both SMN2-A minigene and GAPDH primersprobe sets (multiplex design), allowing simultaneous measurement of the levels of two transcripts.
Two SMN spliced products are generated from the SMN2 minigene. The first spliced product containing exon 7, corresponding to full length SMN2 mRNA, is referred to herein using the term “SMN2 minigene FL.” The second spliced product lacking exon 7 is referred to herein using the term “SMN2 minigene Δ7.”
The increase of SMN2 minigene FL mRNA relative to that in cells treated with vehicle control is determined from real-time PCR data using a modified ΔΔCt method (as described in Livak and Schmittgen, Methods, 2001, 25:402-8). The amplification efficiency (E) is calculated from the slope of the amplification curve for SMN2 minigene FL and GAPDH individually. The abundances of SMN2 minigene FL and GAPDH are then calculated as (1+E)^−Ct, where Ct is the threshold value for each amplicon. The abundance of SMN2 minigene FL is normalized to GAPDH abundance. The normalized SMN2 minigene FL abundance from test compound-treated samples is then divided by normalized SMN2 minigene FL abundance from vehicle-treated cells to determine the level of SMN2 FL mRNA relative to vehicle control.

Smn protein = Smn protein assay in cultured cells (SMN HTRF); assay type: cell-based, human; details: SMA patient fibroblast cells (GM03813), 48 hours, 7-point concentration data, relative to vehicle control
Experimental: The SMN HTRF (homogeneous time resolved fluorescence) assay is used to quantify the level of Smn protein in SMA patient fibroblast cells treated with test compounds.
Cells are thawed and cultured in DMEM-10% FBS for 72 hours. Cells are trypsinized, counted and re-suspended to a concentration of 25,000 cells/mL in DMEM-10% FBS. The cell suspensions are plated at 5,000 cells per well in a 96 well microtiter plate and incubated for 3 to 5 hours. […] Test compounds are serially diluted 3.16-fold in 100% DMSO to generate a 7-point concentration curve. 1 μL of test compound solution is transferred to cell-containing wells and cells are incubated for 48 hours in a cell culture incubator (37° C., 5% CO2, 100% relative humidity). Triplicate samples are set up for each test compound concentration. After 48 hours, the supernatant is removed from the wells and 25 μL of the RIPA lysis buffer, containing protease inhibitors, is added to the wells and incubated with shaking at room temperature for 1 hour. 25 μL of the diluent is added and then 35 μL of the resulting lysate is transferred to a 384-well plate, where each well contains 5 μL of the antibody solution (1:100 dilution of anti-SMN d2 and anti-SMN kryptate in SMN reconstitution buffer). The plate is centrifuged for 1 minute to bring the solution to the bottom of the wells, then incubated overnight at room temperature. Fluorescence for each well of the plate at 665 nm and 620 nm is measured on an EnVision multilabel plate reader (Perkin-Elmer).
The normalized fluorescence signal is calculated for each sample, Blank and vehicle control well by dividing the signal at 665 nm by the signal at 620 nm. Normalizing the signal accounts for possible fluorescence quenching due to the matrix effect of the lysate. The ΔF value (a measurement of Smn protein abundance as a percent value) for each sample well is calculated by subtracting the normalized average fluorescence for the Blank control wells from the normalized fluorescence for each sample well, then dividing this difference by the normalized average fluorescence for the Blank control wells and multiplying the resulting value by 100. The ΔF value for each sample well represents the Smn protein abundance from test compound-treated samples. The ΔF value for each sample well is divided by the ΔF value for the vehicle control wells to calculate the fold increase in Smn protein abundance relative to the vehicle control.

melting point [°C]	SMILES	EC (1.5-fold) [1] [µM]	maximum fold (Fold) increase of Smn protein (Smn protein)
324 to 326	O=c1oc(-c2nc3ccccc3s2)cc2ccc(N3CCNCC3)cc12 [Cpd 8, 3-(1,3-benzothiazol-2-yl)-7-(piperazin-1-yl)-1H-isochromen-1-one]	3 to 30	* (A maximum fold increase of ≦1.2 is indicated by one star (*))
310 to 312	C[C@@H]1CN(c2ccc3cc(-c4nc5ccccc5s4)oc(=O)c3c2)C[C@H](C)N1 [Cpd 9, 3-(1,3-benzothiazol-2-yl)-7-[(3R,5S)-3,5-dimethylpiperazin-1-yl]-1H-isochromen-1-one]	3 to 30	* (A maximum fold increase of ≦1.2 is indicated by one star (*))
277 to 279	O=c1oc(-c2nc3ccccc3s2)cc2ccc(N3CCCNCC3)cc12 [Cpd 10, 3-(1,3-benzothiazol-2-yl)-7-(1,4-diazepan-1-yl)-1H-isochromen-1-one]	1 to 3	* (A maximum fold increase of ≦1.2 is indicated by one star (*))
270 to 272	CN1CCCN(c2ccc3cc(-c4nc5ccccc5s4)oc(=O)c3c2)CC1 [Cpd 11, 3-(1,3-benzothiazol-2-yl)-7-(4-methyl-1,4-diazepan-1-yl)-1H-isochromen-1-one]	0.3 to 1	* (A maximum fold increase of ≦1.2 is indicated by one star (*))
200 to 202	O=c1oc(-c2cc(F)cc(F)c2)cc2ccc(N3CCNCC3)cc12 [Cpd 14, 3-(3,5-difluorophenyl)-7-(piperazin-1-yl)-1H-isochromen-1-one]	1 to 3	** (a fold increase between >1.2 and ≦1.35 is indicated by two stars (**))
297 to 299	CN1CCN(c2ccc3cc(-c4ccc5c(c4)OCO5)oc(=O)c3c2)CC1 [Cpd 15, 3-(1,3-benzodioxol-5-yl)-7-(4-methylpiperazin-1-yl)-1H-isochromen-1-one]	3 to 30	* (A maximum fold increase of ≦1.2 is indicated by one star (*))

The remaining lines, values behind:

SMILES	melting point [°C]	EC (1.5-fold) [1] [µM]	maximum fold (Fold) increase of Smn protein (Smn protein)
O=c1oc(-c2ccc3c(c2)OC(F)(F)O3)cc2ccc(N3CCNCC3)cc12 [Cpd 6, 3-(2,2-difluoro-1,3-benzodioxol-5-yl)-7-(piperazin-1-yl)-1H-isochromen-1-one]	220 to 222	1 to 3	* (A maximum fold increase of ≦1.2 is indicated by one star (*))
CN1CCCN(c2ccc3cc(-c4ccc5c(c4)OC(F)(F)O5)oc(=O)c3c2)CC1 [Cpd 7, 3-(2,2-difluoro-1,3-benzodioxol-5-yl)-7-(4-methyl-1,4-diazepan-1-yl)-1H-isochromen-1-one]	175 to 177	1 to 3	* (A maximum fold increase of ≦1.2 is indicated by one star (*))
O=c1oc(-c2ccc3c(c2)OCO3)cc2ccc(N3CCNCC3)cc12 [Cpd 12, 3-(1,3-benzodioxol-5-yl)-7-(piperazin-1-yl)-1H-isochromen-1-one]	267 to 269	0.3 to 1	** (a fold increase between >1.2 and ≦1.35 is indicated by two stars (**))
O=c1oc(-c2ccc3c(c2)OCCO3)cc2ccc(N3CCNCC3)cc12 [Cpd 13, 3-(2,3-dihydro-1,4-benzodioxin-6-yl)-7-(piperazin-1-yl)-1H-isochromen-1-one]	253 to 255	1 to 3	* (A maximum fold increase of ≦1.2 is indicated by one star (*))
COc1ccc(-c2cc3ccc(N4C[C@@H](C)N[C@@H](C)C4)cc3c(=O)o2)cc1OC [Cpd 17, 3-(3,4-dimethoxyphenyl)-7-[(3R,5S)-3,5-dimethylpiperazin-1-yl]-1H-isochromen-1-one]	309 to 311	0.3 to 1	*** (a fold increase between >1.35 and ≦1.5 is indicated by three stars (***))
